Our source for the EC50, Emax and activation values is patent publication US9133206B2, “Benzodiazepine and pyridodiazepine derivatives” (AbbVie Inc., priority 2010, dated 2015).

Some results are limits rather than exact numbers.

For the experiment, the system named is SK-N-SH human neuroblastoma cells. The experiment can be described thus: Serum Deprivation/JC-1 Mitochondrial Membrane Potential (MMP) Assay. The class given is cell-based. Particulars: Homo sapiens; for EC50 / Emax: SK-N-SH; for EC50: 18 h, serum deprivation ~18 hours, JC-1 ratio normalized to peak value for 10 μM dimebolin, single curve fit to mean data of n=2-3; for Emax: percent maximal intensity in JC-1 ratio normalized to peak value for 10 μM dimebolin, read-out: JC-1 max %; for Emax / activation at 3 µM: serum deprivation; for activation at 3 µM: single dose 3 μM, JC-1 ratio normalized to peak value for 10 μM dimebolin (n=2-4), read-out: JC-1 max % (@ 3 μM). From the text:
The method also involves a high-throughput assay using serum-deprivation conditions involving neuronal cells to screen for compounds that increase or preserve mitochondrial membrane potential. Such compounds can be found to aid in rescuing cells from energy-depletion that occurs in several neurodegenerative states. Mitochondrial-mediated apoptosis occurs in response to a wide range of apoptotic stimuli including p^53, c-myc, DNA damage, prooxidants, chemotherapeutic agents, serum starvation and death receptor activation (Lin C—H., Lu Y-Z., Cheng, F-C., Chu L-F. and Hsuch C-M. Bax-regulated mitochondrial-mediated apoptosis is responsible for the in vitro ischemia induced neuronal cell death of Sprague Dawley rat. Neuroscience Lett. 2005, 387, 22-27).
Thus, this stress inducer, serum deprivation, combined with monitoring changes in the mitochondrial membrane potential in a 96-well format allows for the establishment of an efficient high-throughput screen (HTS) in order to evaluate the ability of compounds to increase mitochondrial membrane potential in the presence of stress and preserve health of the cell. Exemplary procedures for conducting such high-throughput assay are provided below.
SK-N-SH human neuroblastoma cells obtained from American Type Culture Collection (Rockville, Md.) were maintained in the log phase of growth in Minimal Essential Media (MEM), 10% heat inactivated fetal calf serum and 100 units/mL antibiotic-antimycotic (AA). Cells were cultured and maintained in a humidified incubator at 37° C. under 5% CO2 and 95% air. Cells were trypsinized (0.25%) and subcultured every 3 days and used from 15-18 passages. All cell culture supplies were obtained from Invitrogen (Carlsbad, Calif.).
SK-N-SH cells were plated 2-3 days in advance at a concentration of 50,000 cells/well onto collagen coated black-walled 96 well plates (Becton-Dickinson, Bedford, Mass.) in a total volume of […]. On day of experimental treatment, the media containing serum was aspirated from each well and rinsed once with MEM/1% AA without serum. The cells then were incubated overnight in 100 μL of MEM/1% AA (no serum) with and without dimebolin or novel chemical entities overnight for ˜18 hours. The following day, JC-1 dye (5,5′,6,6′-tetrachloro-1,1′,3,3′-tetraethylbenzimidazolcarbocyanide) was diluted 1:10 into MEM media according to the JC-1 Mitochondrial Membrane Potential Assay Kit: (Cayman Chemical Company, Ann Arbor, Mich.) and then 10 μL of the JC-1 dye solution was added to each well. The plates were centrifuged for 5 minutes at 400×g at room temperature followed by 40 minute incubation at 37° C. The plates were washed twice with 200 μL of provided Assay Buffer followed an addition of 100 μL of Assay Buffer to each well. The plates were read with an excitation and emission of 560 nm and 595 nM for red fluorescence and with an excitation and emission of 485 nm and 535 nM for green fluorescence to determine the final JC-1 value taking the red to green fluorescence ratio. This assay is based on change in mitochondrial membrane potential (MMP) using this lipophilic cationic dye, JC-1, by monitoring the changes in the ratio of red to green fluorescence as the MMP depolarizes. This change in MMP reflects the health of the cell with healthy, viable cells have a high JC-1 ratio and high MMP whereas apoptotic, unhealthy cells have a low JC-1 ratio or low MMP.
For the ability of compounds to reverse the stress due to serum deprivation and increase the JC-1 ratio, the percent maximal intensity in JC-1 ratio was normalized to that induced by the peak value for 10 μM dimebolin and plotted against the compound concentration to calculate EC50 values and to control for plate-to-plate variability. Concentration-response data were analyzed using GraphPad Prism (San Diego, Calif.); the EC50 values were derived from a single curve fit to the mean data of n=2-3, in duplicates. […]

What is called EC50 is the concentration giving half of the maximal effect. Turning to `O=C(c1ccncc1)N1Cc2ccccc2N2CCN(Cc3ccccc3)CC2C1` (stereo not shown) [Example 107, (3-benzyl-1,2,3,4,4a,5-hexahydropyrazino[1,2-a][1,4]benzodiazepin-6(7H)-yl)(pyridin-4-yl)methanone], the EC50 came out at 5.66 µM and the Emax is 192%.

Consider `CN1CCN2c3ccccc3N(Cc3ccc(Br)cc3)CCC2C1` (stereo not shown) [Example 22, 7-(4-bromobenzyl)-3-methyl-1,2,3,4,4a,5,6,7-octahydropyrazino[1,2-a][1,5]benzodiazepine], for which the EC50 came out at 2.95 µM and the Emax was found to be 173%.

Take `CCCN(C)C(=O)N1Cc2ccccc2N2CCN(Cc3ccccc3)CC2C1` (stereo not shown) [Example 170, 3-benzyl-N-methyl-N-propyl-1,2,3,4,4a,5-hexahydropyrazino[1,2-a][1,4]benzodiazepine-6(7H)-carboxamide]: the activation at 3 µM amounted to 273%.

Turning to `Cc1noc(C)c1C(=O)N1Cc2ccccc2N2CCN(Cc3ccccc3)CC2C1` (stereo not shown) [Example 101, (3-benzyl-1,2,3,4,4a,5-hexahydropyrazino[1,2-a][1,4]benzodiazepin-6(7H)-yl)(3,5-dimethyl-1,2-oxazol-4-yl)methanone], the activation at 3 µM is 149%.

For `O=C(c1ccoc1)N1Cc2ccccc2N2CCN(Cc3ccccc3)CC2C1` (stereo not shown) [Example 94, (3-benzyl-1,2,3,4,4a,5-hexahydropyrazino[1,2-a][1,4]benzodiazepin-6(7H)-yl)(3-furyl)methanone], the EC50 was found to be 2.76 µM and the Emax was determined as 172%.

With `O=C(CC1CC1)N1Cc2ccccc2N2CCN(Cc3ccccc3)CC2C1` (stereo not shown) [Example 92, 1-(3-benzyl-1,2,3,4,4a,5-hexahydropyrazino[1,2-a][1,4]benzodiazepin-6(7H)-yl)-2-cyclopropylethanone], the EC50 stood at 2.47 µM and the Emax came to 174%.

For the compound `c1ccc(CN2CCN3c4ccccc4N(Cc4ccccc4)CCC3C2)cc1` (stereo not shown) [Example 45, 3,7-dibenzyl-1,2,3,4,4a,5,6,7-octahydropyrazino[1,2-a][1,5]benzodiazepine], the EC50 was found to be 5.93 µM and the Emax was 238%.

Regarding `Oc1ccc(CN2Cc3ccccc3N3CCN(Cc4ccccc4)CC3C2)cc1` (stereo not shown) [Example 50, 4-[(3-benzyl-1,2,3,4,4a,5-hexahydropyrazino[1,2-a][1,4]benzodiazepin-6(7H)-yl)methyl]phenol], the EC50 came to 5.95 µM and the Emax was found to be 240%.

Regarding `Clc1ccc(CN2Cc3ccccc3N3CCN(Cc4ccccc4)CC3C2)cc1` (stereo not shown) [Example 130, 3-benzyl-6-(4-chlorobenzyl)-1,2,3,4,4a,5,6,7-octahydropyrazino[1,2-a][1,4]benzodiazepine], the EC50 came out at 4 µM and the Emax was found to be 181%.

For `O=C(N1CCOCC1)N1Cc2ccccc2N2CCN(c3ccc(Cl)cc3)CC2C1` (stereo not shown) [Example 82, [3-(4-chlorophenyl)-1,2,3,4,4a,5-hexahydropyrazino[1,2-a][1,4]benzodiazepin-6(7H)-yl](morpholin-4-yl)methanone], the EC50 amounted to 5.11 µM and the Emax turned out to be 127%.

As for `O=C(CN1CCOCC1)N1Cc2ccccc2N2CCN(Cc3ccccc3)CC2C1` (stereo not shown) [Example 87, 1-(3-benzyl-1,2,3,4,4a,5-hexahydropyrazino[1,2-a][1,4]benzodiazepin-6(7H)-yl)-2-(morpholin-4-yl)ethanone], the activation at 3 µM was found to be 83%.

Turning to `O=C(c1ccc[nH]1)N1Cc2ccccc2N2CCN(Cc3ccccc3)CC2C1` (stereo not shown) [Example 93, (3-benzyl-1,2,3,4,4a,5-hexahydropyrazino[1,2-a][1,4]benzodiazepin-6(7H)-yl)(1H-pyrrol-2-yl)methanone], the EC50 is 1.56 µM and the Emax was 185%.

Consider `c1ccc(CN2CCN3c4ccccc4CN(c4ncccn4)CC3C2)cc1` (stereo not shown) [Example 9, 3-benzyl-6-(pyrimidin-2-yl)-1,2,3,4,4a,5,6,7-octahydropyrazino[1,2-a][1,4]benzodiazepine], for which the EC50 amounted to 2.59 µM and the Emax stood at 158%.

As for `O=C(Cc1cccnc1)N1Cc2ccccc2N2CCN(Cc3ccccc3)CC2C1` (stereo not shown) [Example 98, 1-(3-benzyl-1,2,3,4,4a,5-hexahydropyrazino[1,2-a][1,4]benzodiazepin-6(7H)-yl)-2-(pyridin-3-yl)ethanone], the activation at 3 µM was determined as 107%.

As for `c1ccc(CN2CCN3c4ccccc4CN(Cc4ccccc4)CC3C2)cc1` (stereo not shown) [Example 7, 3,6-dibenzyl-1,2,3,4,4a,5,6,7-octahydropyrazino[1,2-a][1,4]benzodiazepine], the EC50 is over 30 µM and the Emax was found to be 24%.

With `CN1Cc2ccccc2N2CCN(Cc3ccccc3)CC2C1` (stereo not shown) [Example 8, 3-benzyl-6-methyl-1,2,3,4,4a,5,6,7-octahydropyrazino[1,2-a][1,4]benzodiazepine], the EC50 stood at 3.03 µM and the Emax was 204%.

On to `COc1ccc(CN2Cc3ccccc3N3CCN(Cc4ccccc4)CC3C2)cc1C` (stereo not shown) [Example 119, 3-benzyl-6-(4-methoxy-3-methylbenzyl)-1,2,3,4,4a,5,6,7-octahydropyrazino[1,2-a][1,4]benzodiazepine], for which the concentration for a half-maximal effect (EC50) amounted to 3.95 µM and the Emax worked out at 172%.

For the compound `CC1(C(=O)N2Cc3ccccc3N3CCN(Cc4ccccc4)CC3C2)CC1` (stereo not shown) [Example 114, (3-benzyl-1,2,3,4,4a,5-hexahydropyrazino[1,2-a][1,4]benzodiazepin-6(7H)-yl)(1-methylcyclopropyl)methanone], the EC50 was determined as 4.36 µM and the Emax is 201%.

For `O=C(c1ccno1)N1Cc2ccccc2N2CCN(Cc3ccccc3)CC2C1` (stereo not shown) [Example 90, (3-benzyl-1,2,3,4,4a,5-hexahydropyrazino[1,2-a][1,4]benzodiazepin-6(7H)-yl)(1,2-oxazol-5-yl)methanone], the activation at 3 µM stood at 114%.

As for `O=C(C1CCOC1)N1Cc2ccccc2N2CCN(Cc3ccccc3)CC2C1` (stereo not shown) [Example 109, (3-benzyl-1,2,3,4,4a,5-hexahydropyrazino[1,2-a][1,4]benzodiazepin-6(7H)-yl)(tetrahydrofuran-3-yl)methanone], the activation at 3 µM is 65%.

Turning to `Cc1ccc(CN2Cc3ccccc3N3CCN(Cc4ccccc4)CC3C2)s1` (stereo not shown) [Example 122, 3-benzyl-6-[(5-methyl-2-thienyl)methyl]-1,2,3,4,4a,5,6,7-octahydropyrazino[1,2-a][1,4]benzodiazepine], the EC50 came to 3.4 µM and the Emax is 133%.

Turning to `O=C(N1CCCCC1)N1Cc2ccccc2N2CCN(Cc3ccccc3)CC2C1` (stereo not shown) [Example 171, (3-benzyl-1,2,3,4,4a,5-hexahydropyrazino[1,2-a][1,4]benzodiazepin-6(7H)-yl)(piperidin-1-yl)methanone], the EC50 was 2.45 µM and the Emax was 251%.

For the compound `O=C(Nc1nccs1)N1Cc2ccccc2N2CCN(Cc3ccccc3)CC2C1` (stereo not shown) [Example 159, 3-benzyl-N-(1,3-thiazol-2-yl)-1,2,3,4,4a,5-hexahydropyrazino[1,2-a][1,4]benzodiazepine-6(7H)-carboxamide], the activation at 3 µM turned out to be 64%.

Turning to `Cc1cccc(CN2Cc3ccccc3N3CCN(Cc4ccccc4)CC3C2)c1` (stereo not shown) [Example 145, 3-benzyl-6-(3-methylbenzyl),-1,2,3,4,4a,5,6,7-octahydropyrazino[1,2-a][1,4]benzodiazepine], the EC50 came to 3.14 µM and the Emax was 151%.

In the case of `FC(F)(F)c1ccc(CN2Cc3ccccc3N3CCN(Cc4ccccc4)CC3C2)cn1` (stereo not shown) [Example 35, 3-benzyl-6-{[6-(trifluoromethyl)pyridin-3-yl]methyl}-1,2,3,4,4a,5,6,7-octahydropyrazino[1,2-a][1,4]benzodiazepine], the EC50 came out at 2.86 µM and the Emax was found to be 159%.
